Results on 6 compounds are retold here after patent US12162889B2, “Luminogens for biological applications” (THE HONG KONG UNIVERSITY OF SCIENCE AND TECHNOLOGY, priority 2016, dated 2024).

One data set is described as follows: Two-photon absorption. Type of data set: physicochemical. The text has this: The TPA spectrum of AIE dots in water with the wavelength range from 800-1000 nm at 20 nm intervals was investigated. […] Moreover, a 900 nm fs laser expects to have deeper penetration and better focusing capability than the commonly used 770-860 nm Ti:Sapphire fs laser. Therefore, the TTS dots are a promising candidate for two-photon deep-tissue in vivo bioimaging.

The test system of a further data set is HeLa cells. The experiment in a line: Cell imaging of living HeLa cells with AIE dots. Conditions: dye as AIE dots, 12 h, 37° C. Format: cell-based. How it is done:
Generally, 1 mg of the AIEgen and 5 mg of DSPE-PEG-Biotin were dissolved in 1 mL of chloroform. Subsequently, 9 mL of Milli-Q water was added into the chloroform solution under sonication for 10 minutes at room temperature using a microtip probe sonicator with an 18 W output (XL2000, Misonix Incorp., USA). The mixture was stirred in the nitrogen flow overnight until the chloroform was completely evaporated. A clear solution was obtained, and the solution was filtered through a 0.45 μm microfilter to result in the formation of AIE dots.
Cell Culture: HeLa cells were cultured in MEM containing 10% FBS and antibiotics (100 units/mL penicillin and 100 µg/mL streptomycin) in a 5% CO2 humidity incubator at 37° C. All culture media were supplemented with 10% heat-inactivated FBS, 100 units/mL penicillin, and 100 μg/mL streptomycin. Before the experiment, the cells were precultured until confluence was reached.
Cell Imaging: HeLa cells were grown overnight on a 35 mm petri dish with a cover slip at 37° C. After removal of the medium, the adherent cells were washed twice with 1× phosphate buffered saline (PBS) buffer. The AIE dots were then added to the chamber. After incubation for 12 hours, the cells were washed three times with 1×PBS buffer. The cells were imaged on a Zeiss laser scanning confocal microscope and analyzed using ZEN 2009 software.

The nature of data set [1]: Absorption spectra in solvents / aqueous media. Format: physicochemical. An excerpt:
With introduction of extra arylamine units to the TTB molecule, the absorption peak of TTS is slightly red-shifted due to longer electronic conjugation.
(§1) Due to the higher ΦF and much better processability of TTS, it was chosen for further biological applications. For easy dispersion of the highly hydrophobic TTS molecules in an aqueous environment, the TTS dots were formulated through a simple procedure by a nanoprecipitation method with amphiphilic and biocompatible 1,2-distearoyl-sn-glycero-3-phosphoethanolamine-N [methoxy(polyethyleneglycol)-2000] (DSPE-PEG 2000) as the encapsulation matrix (FIG. 70). […] TTS dots have an absorption maxima at 497 nm in aqueous media, which fits well with the commercial laser excitation at 488 nm. The strong emission of TTS dots (FIG. 71B) peaks at the red region (630 nm) and tails to the near-infrared region (820 nm). It is noteworthy that the Stokes shift of the TTS dots is big enough (>130 nm) to solve the serious problem of the self-quenching effect common in conventional organic dye molecules.

A short description of data set [2]: Energy band gap and HOMO/LUMO from absorption onset and onset oxidation potential. Format: physicochemical.
A short description of data set [3]: Photoluminescence (emission) spectra in solvents, THF/water aggregates, powder and dots. Type of data set: physicochemical.
From the text: The photoluminescence (PL) spectrum of TTS (FIG. 66) is basically a flat line parallel to the abscissa in pure THF. The spectral pattern remains unchanged at water content up to 40%. Afterwards, the PL intensity increases dramatically. The higher the water fraction, the stronger the emission intensity. The emission peak reaches to ˜636 nm. The emission intensity reaches its maximum value at 90% water content, which is 170-fold higher than that in pure THF
When the solvent polarity was increased from Tol to NMP, the emission of TTB, TTA, and TTS are red-shifted with an emission quenching effect. […] However, compared with TTB molecule, TTA and TTS molecules are more sensitive to solvent polarity. TTA and TTS are emissive in Tol, weak emissive in DO and nonemissive in THF with medium polarity. In contrast, TTB is highly emissive in Tol, DO, and THF, and even in the high polarity solvent NMP, TTB is still emissive observed by the naked eye. […] It is probable that even in THF with medium polarity, the conformation of the TTA or TTS becomes twisted and the charge becomes separated.
In pure THF solution, it is non-emissive. The PL intensity remains unchanged at water fraction fw<50%. Afterwards, the PL intensity reaches its maximum value at 90% water content with emission peak at ˜635 nm. Thus, both TTS and TTA are AIE-active.
as §1

A short description of data set [4]: Fluorescence quantum yield and lifetime. Type of data set: physicochemical.
For data set [5] the following is noted: in methanol; cited from earlier work.
Where [6] appears, read: aggregate, excitation 900 nm laser.

On to `c1ccc(C(=C(c2ccccc2)c2ccc(-c3ccc(N(c4ccc(-c5ccc(C(=C(c6ccccc6)c6ccccc6)c6ccccc6)cc5)cc4)c4ccc(-c5sc(-c6ccc(N(c7ccc(-c8ccc(C(=C(c9ccccc9)c9ccccc9)c9ccccc9)cc8)cc7)c7ccc(-c8ccc(C(=C(c9ccccc9)c9ccccc9)c9ccccc9)cc8)cc7)cc6)c6c5N=S=N6)cc4)cc3)cc2)c2ccccc2)cc1` [TPE-TPA-TT, N,N′-(thieno[3,4-b][1,2,5]thiadiazole-5,7-diylbis(4,1-phenylene))bis(4′-(1,2,2-triphenylvinyl)-N-(4′-(1,2,2-triphenylvinyl)-[1,1′-biphenyl]-4-yl)-[1,1′-biphenyl]-4-amine)], for which, in the data set “Two-photon absorption”, the two-photon absorption properties entry is “excellent two-photon absorption properties”.
For the compound `c1ccc(-c2nc3c(-c4ccc(N(c5ccccc5)c5cccc6ccccc56)cc4)c4nsnc4c(-c4ccc(N(c5ccccc5)c5cccc6ccccc56)cc4)c3nc2-c2ccccc2)cc1` [NPB-TQ, N,N′-((6,7-diphenyl-[1,2,5]thiadiazolo[3,4-g]quinoxaline-4,9-diyl)bis(4,1-phenylene))bis(N-phenylnaphthalen-1-amine)], the two-photon absorption properties entry in “Two-photon absorption” is “excellent two-photon absorption properties”.
In the case of `CCCCCCCCN1c2ccc(-c3ccc(-c4ccc(N(c5ccccc5)c5ccccc5)cc4)c4nsnc34)cc2Sc2cc(-c3ccc(-c4ccc(N(c5ccccc5)c5ccccc5)cc4)c4nsnc34)ccc21` [PTZ-BT-TPA, 4,4′-((10-octyl-10H-phenothiazine-3,7-diyl)bis(benzo[c][1,2,5]thiadiazole-7,4-diyl))bis(N,N-diphenylaniline)], in “Two-photon absorption”, the two-photon absorption properties entry was “excellent two-photon absorption properties”. Moreover, the fluorescence in cells entry with HeLa cells is listed as “intense red fluorescence was observed in the cellular cytoplasms”.
Turning to `c1ccc(C(=C(c2ccccc2)c2ccc(N(c3ccc(-c4ccc(-c5ccc(N(c6ccc(C(=C(c7ccccc7)c7ccccc7)c7ccccc7)cc6)c6ccc(N(c7ccccc7)c7ccccc7)cc6)cc5)c5nsnc45)cc3)c3ccc(N(c4ccccc4)c4ccccc4)cc3)cc2)c2ccccc2)cc1` [TTS], the “λab absorption maximum in THF” value in data set [1] (THF (Table 2)) is reported as 481 nm. For the same compound, the λab absorption maximum in data set [1] (solvent DO) came to 478 nm; in data set [1] (solvent NMP) it was 484 nm; in data set [1] (solvent THF) it was 481 nm; in data set [1] (solvent Tol) it was 484 nm. Further, the LUMO in data set [2] (LUMO = HOMO + Eg) is given as −2.84 eV. Also, in data set [2] (calculated from the onset of the absorption spectrum), the “Eg energy band gap” value is 2.21 eV. Also, the HOMO in data set [2] (calculated from the onset oxidation potential) is reported as −5.05 eV. The “maximum two-photon absorption cross section” value in the data set “Two-photon absorption” (setting [6]) turned out to be 310 GM. Besides, the “λem emission maximum soln” value in data set [3] (THF solution) is 641. Also, the “λem emission maximum aggr” value in data set [3] (THF/water mixture (1:9 by volume)) is listed as 636. Moreover, the “emission intensity at 90% water content relative to pure THF” value in data set [3] (THF/water, 10 μM, excitation 480 nm) turned out to be 170 fold. Further, the “emission peak in THF/water mixture” value in data set [3] (aggregate state, high water content (90%)) is listed as roughly 636 nm. The “λem emission maximum powder” value in data set [3] (solid powder) is 636. The λem emission maximum is listed as 640 nm in data set [3] (solvent DO, excitation 480 nm) and 623 nm in data set [3] (solvent Tol, excitation 480 nm). In addition, in data set [4] (THF solution, in parentheses), the “fluorescence quantum yield ΦF soln” value is “(0.1) %”. In addition, the “quantum efficiency relative to rhodamine B” value in data set [4] (setting [6]) is reported as 38.5%. The “τ fluorescence lifetime of solid powders” value in data set [4] (solid powder) is recorded as 1.86 ns. In addition, the “solid powders fluorescence quantum yield ΦF” value in data set [4] (solid powder, in parentheses) is “(34.1) %”.
`CCN(CC)c1ccc2c(-c3ccccc3C(=O)O)c3ccc(=[N+](CC)CC)cc-3oc2c1.[Cl-]` [rhodamine B]: in data set [5], the ΦF of reference is on record as 41.9%.
For `COc1ccc(C(=C(c2ccccc2)c2ccc(-c3sc(-c4ccc(C(=C(c5ccc(OC)cc5)c5ccc(OC)cc5)c5ccccc5)cc4)c4nc(-c5ccccc5)c(-c5ccccc5)nc34)cc2)c2ccc(OC)cc2)cc1` [MTPE-TP, 5,7-bis(4-(2,2-bis(4-methoxyphenyl)-1-phenylvinyl)phenyl)-2,3-diphenylthieno[3,4-b′]pyrazine], the fluorescence in cells result with HeLa cells is “intense red fluorescence was observed in the cellular cytoplasms”.
